The source of these data is ChEMBL document CHEMBL1140572, “Next-generation spirobenzazepines: identification of RWJ-676070 as a balanced vasopressin V1a/V2 receptor antagonist for human clinical studies” (Bioorg Med Chem Lett, 2007).

Data set [1] concerns the target T1, Vasopressin V1a receptor (Homo sapiens, UniProt P37288). Put plainly: Displacement of [3H]Arg-vasopressin from human recombinant vasopressin V1a receptor expressed in HEK293 cells. It is filed as cell-based.
Target sequence in this assay (P37288 whole entry): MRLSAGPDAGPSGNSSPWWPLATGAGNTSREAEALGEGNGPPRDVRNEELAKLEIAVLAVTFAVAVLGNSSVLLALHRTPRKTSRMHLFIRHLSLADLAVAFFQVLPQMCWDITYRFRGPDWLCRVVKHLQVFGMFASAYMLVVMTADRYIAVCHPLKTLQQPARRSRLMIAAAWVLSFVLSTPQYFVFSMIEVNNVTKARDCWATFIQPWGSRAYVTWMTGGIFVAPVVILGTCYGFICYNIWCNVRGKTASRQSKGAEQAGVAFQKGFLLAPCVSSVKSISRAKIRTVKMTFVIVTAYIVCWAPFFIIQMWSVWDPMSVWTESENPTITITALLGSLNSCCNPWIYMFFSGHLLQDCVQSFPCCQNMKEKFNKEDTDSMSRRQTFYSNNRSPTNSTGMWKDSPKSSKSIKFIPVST
In data set [2] the target is T2, Vasopressin V2 receptor (Homo sapiens, UniProt P30518). Put plainly: Displacement of [3H]Arg-vasopressin from human recombinant vasopressin V2 receptor expressed in HEK293 cells at 100 nM. It is filed as cell-based. In general terms: Displacement assays read how much labelled ligand stays bound in the presence of the test substance.
The test system of data set [3] is Rattus norvegicus. Briefly: Aquaretic effect in hydrated conscious rat assessed as reduction of urine osmolality at 30 mg/kg, po relative to control. It is filed as functional. Set-up: scale not given: the % may be the effect or the level left.
Data set [4] deals with Canis familiaris. Put plainly: Aquaretic effect in Beagle dog assessed as increase in urine volume at 30 mg/kg, po relative to control. It counts as functional, Canis lupus familiaris.
Data set [5] relates to Canis familiaris. Briefly: Aquaretic effect in Beagle dog assessed as reduction of urine osmolality at 30 mg/kg, po relative to control. Set-up: scale not given: the % may be the effect or the level left. It is filed as functional, Canis lupus familiaris.
In data set [6] the test system is Rattus norvegicus. Put plainly: Reversal of Arg-vasopressin-induced hypertension in iv dosed Long-Evans rat assessed as reduction of blood pressure. It is filed as functional.
The target of data set [7] is T2, Vasopressin V2 receptor. Briefly: Displacement of [3H]Arg-vasopressin from human recombinant vasopressin V2 receptor expressed in HEK293 cells. It counts as cell-based.
A short description of data set [8]: Aqueous solubility at pH 7.4. It counts as physicochemical.
For data set [9], the target named is Vasopressin V1a receptor (Rattus norvegicus, UniProt P30560). Briefly: Antagonist activity at rat vasopressin V1a receptor expressed in HEK293 cells assessed as inhibition of Arg-vasopressin-induced intracellular calcium level. It counts as functional, cell-based. (In general: Calcium flux is commonly read through the fluorescence of an indicator in the cells.)

Data set [10] deals with Vasopressin V2 receptor (Rattus norvegicus, UniProt Q00788). Briefly: Antagonist activity at rat vasopressin V2 receptor expressed in HEK293 cells assessed as inhibition of Arg-vasopressin-induced cAMP levels. It counts as functional, cell-based. For orientation: Cyclic AMP is a second messenger, typically raised through Gs and lowered through Gi signalling.
Data set [11] is described as follows: Oral bioavailability in rat. It is filed as ADME, organism-based. The note with it: in vivo.
Data set [12] can be described thus: Oral bioavailability in dog. It counts as ADME, organism-based, Canis lupus familiaris. The conditions noted are these: in vivo.
A short description of data set [13]: Oral bioavailability in cynomolgus monkey. It is filed as ADME, organism-based, Macaca fascicularis. The note with it: in vivo.
Data set [14] in a line: Half life in rat plasma. It counts as ADME, organism-based.
The nature of data set [15]: Half life in dog plasma. It counts as ADME, organism-based, Canis lupus familiaris.
Data set [16] in a line: Half life in cynomolgus monkey plasma. It counts as ADME, organism-based, Macaca fascicularis.
The subject of data set [17] is Rattus norvegicus. Briefly: Aquaretic effect in hydrated conscious rat assessed as increase in urine volume at 1 mg/kg, po relative to control. It counts as functional.
The subject of data set [18] is Rattus norvegicus. Briefly: Aquaretic effect in hydrated conscious rat assessed as reduction of urine osmolality at 1 mg/kg, po relative to control. It counts as functional. Set-up: scale not given: the % may be the effect or the level left.
Data set [19] relates to Rattus norvegicus. Put plainly: Aquaretic effect in hydrated conscious rat assessed as increase in urine volume at 3 mg/kg, po relative to control. It is filed as functional.
The test system of data set [20] is Rattus norvegicus. Put plainly: Aquaretic effect in hydrated conscious rat assessed as reduction of urine osmolality at 3 mg/kg, po relative to control. It counts as functional. Set-up: scale not given: the % may be the effect or the level left.
The test system of data set [21] is Rattus norvegicus. Briefly: Aquaretic effect in hydrated conscious rat assessed as increase in urine volume at 10 mg/kg, po relative to control. It counts as functional.
Data set [22] has as its system Rattus norvegicus. Put plainly: Aquaretic effect in hydrated conscious rat assessed as reduction of urine osmolality at 10 mg/kg, po relative to control. It counts as functional. Set-up: scale not given: the % may be the effect or the level left.
The subject of data set [23] is Rattus norvegicus. Put plainly: Aquaretic effect in hydrated conscious rat assessed as increase in urine volume at 30 mg/kg, po relative to control. It is filed as functional.
Data set [24] deals with T1, Vasopressin V1a receptor. Briefly: Antagonist activity at human vasopressin V1a receptor expressed in HEK293 cells assessed as inhibition of Arg-vasopressin-induced intracellular calcium level. It is filed as functional, cell-based.
Target sequence in this assay (P37288 whole entry): as above
The target in data set [25] is T1, Vasopressin V1a receptor. Briefly: Displacement of [3H]Arg-vasopressin from human recombinant vasopressin V1a receptor expressed in HEK293 cells at 100 nM. It is filed as cell-based.
Target sequence in this assay (P37288 whole entry, looked up): as the sequence (P37288 whole entry) above
Data set [26] has as its target T2, Vasopressin V2 receptor. Put plainly: Antagonist activity at human vasopressin V2 receptor expressed in HEK293 cells assessed as inhibition of Arg-vasopressin-induced cAMP levels. It counts as functional, cell-based.

Each structure is given as a SMILES string. A value given as a limit tells only on which side of the number the result lay.

T2 sequence (P30518 whole entry): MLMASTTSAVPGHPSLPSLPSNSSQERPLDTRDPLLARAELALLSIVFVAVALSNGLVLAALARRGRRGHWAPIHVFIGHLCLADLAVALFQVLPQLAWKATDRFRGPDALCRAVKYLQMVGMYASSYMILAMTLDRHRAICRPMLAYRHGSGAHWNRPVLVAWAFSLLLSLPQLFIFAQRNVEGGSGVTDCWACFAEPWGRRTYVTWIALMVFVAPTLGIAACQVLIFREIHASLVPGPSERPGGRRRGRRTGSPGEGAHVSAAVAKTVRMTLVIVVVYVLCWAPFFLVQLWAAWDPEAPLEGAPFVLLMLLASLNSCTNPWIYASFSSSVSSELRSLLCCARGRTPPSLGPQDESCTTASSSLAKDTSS
Sequence of Vasopressin V1a receptor (Rattus norvegicus, UniProt P30560) (P30560 whole entry): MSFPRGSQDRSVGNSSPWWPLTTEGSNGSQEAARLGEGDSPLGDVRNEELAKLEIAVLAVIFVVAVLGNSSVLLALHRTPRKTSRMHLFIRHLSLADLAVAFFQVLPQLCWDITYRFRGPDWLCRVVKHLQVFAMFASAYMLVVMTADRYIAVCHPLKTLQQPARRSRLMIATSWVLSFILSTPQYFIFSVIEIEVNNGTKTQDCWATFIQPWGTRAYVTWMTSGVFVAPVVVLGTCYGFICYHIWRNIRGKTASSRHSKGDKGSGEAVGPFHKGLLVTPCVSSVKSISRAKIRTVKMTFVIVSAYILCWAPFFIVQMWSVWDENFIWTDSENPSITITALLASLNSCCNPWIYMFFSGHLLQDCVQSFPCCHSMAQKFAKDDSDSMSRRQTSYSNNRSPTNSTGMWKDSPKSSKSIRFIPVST
Sequence of Vasopressin V2 receptor (Rattus norvegicus, UniProt Q00788) (Q00788 whole entry): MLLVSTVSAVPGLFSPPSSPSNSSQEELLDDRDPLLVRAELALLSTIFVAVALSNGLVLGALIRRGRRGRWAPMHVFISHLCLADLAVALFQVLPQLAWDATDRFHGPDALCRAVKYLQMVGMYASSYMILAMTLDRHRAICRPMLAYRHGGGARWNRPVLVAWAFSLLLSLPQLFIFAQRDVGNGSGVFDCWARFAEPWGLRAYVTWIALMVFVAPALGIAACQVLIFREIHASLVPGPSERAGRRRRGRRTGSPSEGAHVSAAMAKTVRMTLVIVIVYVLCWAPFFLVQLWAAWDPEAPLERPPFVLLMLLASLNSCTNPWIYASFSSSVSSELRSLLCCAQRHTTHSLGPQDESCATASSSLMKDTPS

Broadly, the IC50 is the point on the concentration scale where inhibition reaches its midpoint. Consider `Cc1ccc(F)cc1C(=O)Nc1ccc(C(=O)N2CCC3(C=C(CO)CC3)Cc3ccccc32)c(Cl)c1` (stereo not given), for which, in data set [1], the IC50 was 100 nM. For the same compound, the Activity in data set [2] worked out at 66%.

A word on the ED50: it is the dose at which the effect has come halfway, by size or by number of responders. What is called solubility is the concentration that dissolves in the medium under given conditions. As usually defined, the bioavailability is dose-corrected exposure relative to a reference, in per cent. One may read the half-life as the time in which the quantity being followed falls by half. As for `COc1cc(C(=O)N2CC[C@]3(C=C(C(=O)O)CC3)Cc3ccccc32)ccc1NC(=O)c1cc(F)ccc1Cl`, the Activity in [3] is 83%; in [4], 1130%; in data set [5], -78%; in data set [17], 130%; in [18], 87%; in data set [19], 165%. Moreover, the Activity was found to be 48% in data set [20], 310% in data set [21], 52% in data set [22] and 690% in data set [23]. Further, in [6], the median effective dose (ED50) is 0.644 mg/kg. Besides, the IC50 in data set [7] stood at 34 nM; in data set [9], 640 nM; in data set [10], 30 nM. Further, the solubility in [8] is over 1000 µg/mL. Besides, the figures for the bioavailability in data set [11], in data set [12] and in data set [13] were 68%, 45% and 23%, respectively. Besides, the half-life in data set [14] is 8.7 h; in data set [15], 5.1 h; in data set [16], 10.9 h.

As to `Cc1ccc(F)cc1C(=O)Nc1ccc(C(=O)N2Cc3cccn3Cc3ccccc32)c(Cl)c1` [LIXIVAPTAN], the IC50 in data set [24] was over 5000 nM.

As to `Cc1ccc(F)cc1C(=O)Nc1ccc(C(=O)N2CCC3(C=C(C(=O)O)CC3)Cc3ccccc32)c(Cl)c1` (stereo not given), the results for the Activity in data set [25] and in data set [2] were 10% and 67%, respectively.

For the compound `COC(=O)C1=CC2(CC1)CCN(C(=O)c1ccc(NC(=O)c3ccccc3F)cc1)c1ccccc1C2` (stereo not given), the Activity in data set [2] was 23%. In addition, the 50% inhibitory concentration (IC50) in data set [24] was 130 nM; in [26] it was over 10000 nM.

Turning to `COC(=O)C1=CC2(CC1)CCN(C(=O)c1ccc(NC(=O)c3cc(F)ccc3Cl)cc1)c1ccccc1C2` (stereo not given), the IC50 is 40 nM in data set [1], over 200 nM in data set [7], 190 nM in data set [24] and over 10000 nM in data set [26].

As to `CNCC1=CC2(CC1)CCN(C(=O)c1ccc(NC(=O)c3cc(F)ccc3C)cc1Cl)c1ccccc1C2` (stereo not given), the Activity in [25] stood at 0%; in data set [2], 17%.

`O=C(O)C1=CC2(CC1)CCN(C(=O)c1ccc(NC(=O)c3cc(F)ccc3Cl)cc1)c1ccccc1C2` (stereo not given): the IC50 in data set [1] stood at 32 nM; in data set [7], 76 nM; in [24], 780 nM; in data set [26] it was 410 nM.

On to `COc1cc(C(=O)N2CC[C@]3(C=C(C4=NCCN4)CC3)Cc3ccccc32)ccc1NC(=O)c1cc(F)ccc1Cl`, for which the IC50 in [26] stood at 1050 nM.

In the case of `O=C(O)C1=CC2(CC1)CCN(C(=O)c1ccc(NC(=O)c3ccccc3-c3ccccc3)cc1)c1ccccc1C2` (stereo not given), in [26], the IC50 is 360 nM.

As for `O=C(O)C1=CC2(CC1)CCN(C(=O)c1ccc(NC(=O)c3ccccc3F)cc1)c1ccccc1C2` (stereo not given), in data set [1], the IC50 is 100 nM. Besides, in data set [2], the Activity was 15%.

Consider `COc1cc(C(=O)N2CCC3(C=C(C(=O)O)CC3)Cc3ccccc32)ccc1NC(=O)c1cc(F)ccc1Cl` (stereo not given), for which the IC50 in data set [1] is 19 nM; in data set [7], 92 nM; in [24], 89 nM; in [26], 120 nM.

Consider `O=C(Nc1ccc(C(=O)N2CCC3(C=C(CO)CC3)Cc3ccccc32)cc1)c1ccccc1-c1ccccc1` (stereo not given), for which the IC50 came to 9 nM in data set [24] and 190 nM in data set [26].

In the case of `COc1cc(NC(=O)c2cc(F)ccc2C)ccc1C(=O)N1CCC2(C=C(C(=O)O)CC2)Cc2ccccc21` (stereo not given), the Activity in [25] was 15%. Moreover, the IC50 is 11600 nM in data set [24] and 140 nM in [26].

On to `CN(C)CCNC(=O)C1=C[C@@]2(CC1)CCN(C(=O)c1ccc(NC(=O)c3ccccc3-c3ccccc3)cc1)c1ccccc1C2`, for which the IC50 is 2 nM in data set [1], 8 nM in data set [7], 45 nM in [24] and 36 nM in data set [26].

In the case of `CNCC1=CC2(CC1)CCN(C(=O)c1ccc(NC(=O)c3ccccc3-c3ccccc3)cc1)c1ccccc1C2` (stereo not given), the IC50 in data set [1] is 18 nM; in data set [7] it was 44 nM; in data set [24], 630 nM; in data set [26] it was 1800 nM.
